{
  "source": "patent US20230372382A1",
  "about": "“USE OF ADENOSINE DIPHOSPHATE RIBOSE FOR ADJUVANT THERAPY WITH RADIATION AND/OR ANTI-CANCER TREATMENT” (PearlsInMires Co., Ltd., priority 2021, published 2023)",
  "key": {"[1]": {"test_system": "Pancreatic cancer (AsPC-1) cells", "assay": "Xenograft model, combination with radiation, tumor volume", "format": "in vivo, BALB/c nude mice", "conditions": "AsPC-1 xenograft", "method": "(§1) Brain cancer (U-87MG), pancreatic cancer (AsPC-1), breast cancer (MDA-MB-231), or kidney cancer (Caki-1) cells (1×10^7 cells) were inoculated into 5-week-old BALB/c nude mice on the back flank, respectively. Then, when tumors were grown to a volume of approximately 150 mm^3, the mice were divided into three groups: the control group (Control), 2 Gy dose of radiation alone, and a combination administration of 2 Gy dose of radiation+10 mg/kg of ADP-ribose (subcutaneous administration, 3 times a week). The irradiation was performed with an X-Rad 320 irradiator (Precision X-ray, North Branford, CT, USA), wherein the mice were placed by maintaining an appropriate distance from the radiation source for irradiation with a predetermined radiation dose. A lead shield was used to protect the body parts or organs from exposure to radiation, other than the cancerous part of the mouse. The irradiation was performed with a total of 2 Gy of radiation fractionated into two doses of 1 Gy each (for 2 days) at a dose rate of 300 kVp and 150 cGy/min using an X-ray beam filter composed of 12.5 mA and 2.0 mm Al. The tumor size was measured every 6 days using a digital caliper, and the results of changes in tumor volume were compared by the group.\n(§2) Pancreatic cancer (AsPC-1) cells (1×10^7) were inoculated into 5-week-old BALB/c nude mice on the back flank, and the mice were divided into three groups: the control group (Control), 2 Gy dose of radiation alone, and combination administration of 2 Gy dose radiation+10 mg/kg of ADP-ribose. When the tumors were grown to a volume of approximately 150 mm^3, 2 Gy dose of radiation was irradiated twice at 1 Gy each, and 10 mg/kg of ADP-ribose was injected subcutaneously 3 times a week. The tumor size was measured using a digital caliper, and the results of changes in tumor volume were compared by the group."}, "Caki-1 cells": {"test_system": "Caki-1 cells", "assay": "Change over time in intracellular ADP-ribose, radiation versus ADP-ribose treatment (ELISA)", "format": "cell-based", "conditions": "Caki-1, 16 μM ADP-ribose, even after 24 hours; after radiation back to untreated level from 8 hours", "method": "Brain cancer (U-87MG), kidney cancer (Caki-1), pancreatic cancer (AsPC-1), or breast cancer (MDA-MB-231) cells were cultured in a 6-well plate, respectively, and the cells were divided into the untreated group, the radiation-treated group, and the ADP-ribose-treated group. Irradiation was performed using an X-Rad 320 irradiator (Precision X-ray, North Branford, CT, USA), and cancer cells were treated with a total of 1, 2, and 5 Gy at a dose rate of 300 kVp and 150 cGy/min using an X-ray beam filter composed of 12.5 mA and 2.0 mm Al, respectively. Before treatment and at 4, 8, 16, and 24 hours after treatment, the medium was removed, the cells were washed with phosphate-buffered saline, and then RIPA buffer was added and the products were left on ice for 20 minutes. After scraping the cells, the cells were put in a centrifuge tube and centrifuged for 10 minutes at 10,000 g and 4° C. The supernatant was obtained, and 1% SDS was added, and then the reaction product was boiled at 100° C. for 5 minutes and cooled on ice. The supernatant was centrifuged again at 10,000 g and 4° C. for 10 minutes to obtain the final supernatant, and ADP-ribose was quantitatively analyzed using an ELISA analysis kit (Cell Biolabs, Inc., San Diego, CA, USA). […]"}, "[2]": {"test_system": "Lung cancer (H1975) cells", "assay": "Xenograft model, combination with anti-cancer drug, tumor volume", "format": "in vivo, BALB/c nude mice", "method": "Brain (U-87MG), lung (H1975), pancreatic (AsPC-1), or liver (Hep G2) cells (1×10^7 cells) were inoculated into 5-week-old BALB/c nude mice on the back flank, respectively. Then, when tumors were grown to a volume of approximately 150 mm^3, the mice were divided into the control group (control), an anti-cancer drug alone treatment group, and a combination treatment group. […] The tumor size was measured every 6 days using a digital caliper, and the results of changes in tumor volume were compared by the group.\nLung cancer (H1975) cells (1×10^7) were inoculated into 5-week-old BALB/c nude mice on the back flank, and the mice were divided into three groups: the control group (Control), single oral administration of 1 mg/kg of osimertinib, and combination administration of osimertinib+10 mg/kg of ADP-ribose. When the tumors were grown to a volume of approximately 150 mm^3, osimertinib was administered orally twice a week, and ADP-ribose at 10 mg/kg was injected subcutaneously 3 times a week. The tumor size was measured using a digital caliper, and the results of changes in tumor volume were compared by the group."}, "[3]": {"test_system": "Kidney cancer (Caki-1) cells", "assay": "Xenograft model, combination with radiation, tumor volume", "format": "in vivo, BALB/c nude mice", "conditions": "Caki-1 xenograft", "method": "as §1\nas §2, with “Kidney cancer (Caki-1)” for “Pancreatic cancer (AsPC-1)”, “Kidney cancer (Caki-1) cells (1×10^7)” for “Pancreatic cancer (AsPC-1) cells (1×10^7)”, “Gy dose radiation+20 mg/kg of” for “Gy dose radiation+10 mg/kg of”, “each, and 20 mg/kg of” for “each, and 10 mg/kg of”"}, "HCT116 cells": {"test_system": "HCT116 cells", "assay": "Cell death by combination treatment of ADP-ribose and radiation (MTT)", "format": "cell-based", "conditions": "HCT116, 16 μM ADP-ribose in combination with 2 Gy radiation, 24 hours, P<0.001; 2 Gy alone about 90.3%", "description": "3×10^3 Brain cancer (U-87MG), lung cancer (H1975), pancreatic cancer (Aspc-1), liver cancer (Hep G2), breast cancer (MDA-MB-231), colon cancer (HCT116), and kidney cancer (Caki-1) cells were cultured in a 96-well plate for 24 hours under conditions of 37° C. and 5% CO2, treated with ADP-ribose or 2 or 5 Gy radiation alone or in combination with ADP-ribose and 2 Gy radiation, and cultured for 24 hours under conditions of 37° C. and 5% CO2 again. Then, 10 μl of 3-(4,5-dimethylthiazol-2-yl)-2,5-diphenyltetrazolium bromide reagent was added to each well and reacted for 1 hour. After the reaction was completed, the reagent was removed, 200 μl of dimethyl sulfoxide was added to each well, and the absorbance was measured to compare the degree of cell death.\n3×10^3 HCT116 cells were cultured in a 96-well plate for 24 hours under conditions of 37° C. and 5% CO2, treated with 16 μM of ADP-ribose and 2 or 5 Gy dose of radiation individually or in combination, and cultured for 24 hours under conditions of 37° C. and 5% CO2 again. Then, 10 μl of 3-(4,5-dimethylthiazol-2-yl)-2,5-diphenyltetrazolium bromide reagent was added to each well and reacted for 1 hour. After the reaction was completed, the reagent was removed, 200 μl of dimethyl sulfoxide was added to each well, and the absorbance was measured to confirm cell viability."}, "[4]": {"conditions": "ADP-ribose 10 mg/kg s.c. + 2 Gy radiation, P<0.001"}, "[5]": {"conditions": "ADP-ribose 10 mg/kg s.c. in combination with osimertinib 1 mg/kg, P<0.001"}, "[6]": {"conditions": "ADP-ribose 20 mg/kg s.c. + 2 Gy radiation, P<0.001"}},
  "data": [
    {"smiles": "Nc1ncnc2c1ncn2[C@@H]1O[C@H](COP(=O)(O)OP(=O)(O)OC[C@H]2O[C@@H](O)C(O)C2O)C(O)C1O", "note": "(some centres unmarked) [ADP-ribose, adenosine diphosphate ribose]", "values": [
      {"measurement": "reduction of tumor volume compared to the control group", "setting": "[1]; [4]", "result": "about 69.1%"},
      {"measurement": "reduction of tumor volume compared to the group treated with 2 Gy dose of radiation alone", "setting": "[1]; [4]", "result": "about 57.3%"},
      {"measurement": "final tumor volume", "setting": "[1]; ADP-ribose 10 mg/kg subcutaneous 3 times a week + 2 Gy radiation, control about 2384.3, 2 Gy alone about 1725.5", "result": "about 736.2 mm^3"},
      {"measurement": "amount of ADP-ribose in the cells over time compared to the control group", "setting": "Caki-1 cells", "result": "maintained a significant (P<0.001) increase"},
      {"measurement": "reduction of tumor volume compared to the control group", "setting": "[2]; [5]", "result": "about 81%"},
      {"measurement": "reduction of tumor volume compared to the group treated with osimertinib alone", "setting": "[2]; [5]", "result": "about 77%"},
      {"measurement": "final tumor volume", "setting": "[2]; ADP-ribose 10 mg/kg subcutaneous 3 times a week in combination with osimertinib 1 mg/kg, control about 2265.5", "result": "about 424.7 mm^3"},
      {"measurement": "reduction of tumor volume compared to the control group", "setting": "[3]; [6]", "result": "about 70%"},
      {"measurement": "reduction of tumor volume compared to the group treated with 2 Gy dose of radiation alone", "setting": "[3]; [6]", "result": "about 68%"},
      {"measurement": "final tumor volume", "setting": "[3]; ADP-ribose 20 mg/kg subcutaneous 3 times a week + 2 Gy radiation, control about 2620.5, 2 Gy alone about 2454.5", "result": "about 786.4 mm^3"},
      {"measurement": "survival rate of cancer cells", "setting": "HCT116 cells", "result": "about 14%"}
    ]}
  ]
}
